Data taken from patent US9802897B2, “Amidopyridinol derivative or pharmaceutically acceptable salt thereof and pharmaceutical composition comprising same as active component” (Research Cooperation Foundation of Yeungnam University, priority 2013, dated 2017).
Read-outs that look alike come from different tables or passages of the source. Marks after values point to notes of the source that are not given here.

Experiments:
MDA-MB-231 cells = assay: Transwell invasion assay of MDA-MB-231 breast cancer cells; assay type: cell-based; settings: MDA-MB-231; for inhibition at 0.01 µM / inhibition at 0.1 µM / inhibition at 1 µM / inhibition at 10 µM: Homo sapiens, read-out: Inhibition rates of invasion of cancer cells (%)
Description: The invasion assay was performed by using the transwell insert (BD FALCON, Bedford, USA) equipped with a 8 μm pore-sized filter. An upper part of the transwell insert filter was coated with 20 μl of matrigel (1 mg/ml) while a bottom part of the same was coated with 30 μl of type I collagen (0.5 mg/ml). The MDA-MB-231 cells (5×10^5 cells/100 μl) were added to the insert chamber, and then, each inhibitor was also added thereto. To induce invasion of the cells, a medium supplemented with 5% FBS was added to each well of the bottom chamber to allow a reaction at a temperature of 37° C. in a cell incubator. 18 hours later, the cells remained after removing the solution in the insert chamber were removed by using a cotton swab, whereas cells at the bottom of the membrane were fixed with methanol and stained with hematoxylin and eosin. The cells present at the membrane were observed through a microscope, and the number of the cells was counted in the selected 5 fields at the resolution of 200×.
According to the same manner as in Experimental Example 7, inhibitory effects of the amidopyridinol derivatives synthesized in Examples above on invasion of breast cancer cells, e.g., MDA-MB-231, were reviewed. Here, to compare with, inhibitory effects of aminopyridinol derivatives, e.g., 6-amino-2,4,5-trimethylpyridine-3-ol (BJ-1101) and 6-diphenylamino-2,4,5-trimethylpyridine-3-ol (BJ-1201), on invasion of breast cancer cells, e.g., MDA-MB-231, were reviewed.

cathepsin S = assay: RT-PCR of cathepsin S gene expression in MDA-MB-231 cells; assay type: cell-based; settings: for effects for reducing expression of cathepsin S genes (in words): MDA-MB-231
Description: Each compound of the present invention was treated with breast cancer cells (1×10^5 cell/cm^2), e.g., MDA-MB-231, and then, cultured at a temperature of 37° C. for 24 hours in a cell incubator. Afterwards, a trizole reagent was used to extract the entire mRNA therefrom. 24 hours later, the culture medium was removed therefrom, 1 mL of the triazole reagent was added to each well, and then, the cell elusion was transferred to a 1.5 mL tube. After 200 μl of chloroform was added to each sample, the samples were subjected to centrifugation at a temperature of 4° C., at 12,000 g, for 15 minutes. 500 μl of the supernatant obtained therefrom was transferred to a new tube. After 500 μl of isopropylalcohol was added to each sample, the samples were subjected to centrifugation at a temperature of 4° C., at 12,000 g, for 15 minutes. The supernatant obtained therefrom was removed from each sample, and then, the samples were washed with 75% ethanol to clean mRNA while the precipitants were dried. Then, mRNA extracted therefrom was dissolved in RNase-free water, followed by being heated at a temperature of 55° C. for 10 minutes.
After the RNA quantification, the GoScript™ reverse transcription system (Promega Corporation, Madison, Wis., USA) was used to synthesize cDNA. Here, PCR was performed by using TaKaRa Taq™ (Takara bio Inc., Shiga, Japan), wherein a primer set of cathepsin S consists of a forward primer having SEQ ID NO: 1 (forward sequence: 5′-GCAGTGGCACAGTTGCATAA-3′) and a reverse primer having SEQ ID NO: 2 (reverse sequence: 5′-AGCACCACAAGAACCCATGT-3′). After the PCR product was subjected to agarose gel electrophoresis, the PCR product was stained with ethidium bromide (0.5 μg/ml), thereby obtaining images thereof by using the gel imaging system (UVP, Cambridge, UK). Here, the PCR product was quantified based on glyceraldehyde 3-phosphate dehydrogenase (GAPDH). A GAPDH primer used herein consists of a forward primer having SEQ ID NO: 3 (forward sequence: 5′-GGTGAAGGTCGGAGTCAACG-3′) and a reverse primer having SEQ ID NO: 4 (reverse sequence: 5′-CAAAGTTGTCATGGATGACC-3′).
Furthermore, to screen other amidopyridinol derivatives that inhibit metastasis of breast cancer cells, inhibitory effects on expression of cathepsin S genes were reviewed by treating 1 μM of each compound, in the same manner as in Experimental Example 9.

[1] = tested on: VEGF-induced angiogenesis in chicken chorioallantoic membrane (CAM); assay: CAM analysis of VEGF-induced angiogenesis; assay type: in vivo; settings: VEGF (20 ng/CAM) + Compound (0.01 nmol/CAM), number of blood vessels after 3 days; for inhibition in vivo at 0.01 nmol/CAM: Gallus gallus, 72 h, read-out: Inhibitory rates (%)
Description: To confirm inhibitory effects on angiogenesis through in vivo experiments, the chorioallantoic membrane (CAM) analysis was carried out (refer to Nguyen M et al., Microvascular Res., 47, pp 31-40, 1994). A fertilized egg of a chicken was cultured in conditions maintaining a temperature of 37° C. and relative humidity of 55%. On the 10th day of the culturing, a first small hole was made on an air sac part using a hypodermic needle (Green Cross Medical Corp., Korea), and then, a second hole was made on a flat part of the fertilized egg to make a window thereon. Air was removed through the first hole, i.e., the air sac part, and accordingly, the CAM was separated from the shell of the fertilized egg. Then, a grinding wheel (Multipro 395JA, Dremel, Mexico) was used to cut the air sac part, thereby making a window thereon. Next, the whatman filter disk #1 (Whatman Company, USA) was treated with 3 mg/mL of cortisone acetate, dried, and then, wet by VEGF at a concentration of 20 ng/CAM. The filter disk was placed on blood vessels through the window, and then, compounds prepared according to Examples above were each dissolved in DMSO, diluted with PBS, and then, treated for each concentration. After 3 days of treating the compounds, the CAM part on which the filter disk was placed was isolated, and then, washed with PBS. The Stemi SV6 stereomicroscope (Carl Zeiss, Germany) and the Image-Pro Plus software (Media Cybernetics; Silver Spring, Md., USA) were used to capture images of the CAM part, so as to measure the number of the blood vessels and to analyze data obtained therefrom.

HT-29 cells / U937 cells = assay: TNF-α-induced adhesion of HT-29 intestinal epithelial cells and U937 mononuclear cells; assay type: cell-based, human; settings: 1 μM, pre-treated 1 hour, TNF-α 10 ng/ml; for inhibition at 1 µM: Homo sapiens, read-out: Inhibitory rates (%)
Description: HT-29 cells were cultured in a 24-well plate at a concentration of […] cells/cm^2, and meanwhile, amidopyridinol compounds 8a to 8z were pre-treated for 1 hour at each concentration in a serum-free medium supplemented only with 1% PS. Next, 10 ng/ml of TNF-α was treated therewith to allow a reaction at a temperature of 37° C. for 3 hours. After the completion of the reaction, the medium of the HT-29 cells was removed, and then, the HT-29 cells were washed with PBS once. Afterwards, U937 cells, which were treated and reacted with 10 μg/mL of BCECF-AM at a temperature of 37° C. for 30 minutes, were allowed to react with the HT-29 cells at temperature of 37° C. for 1 hour. Then, to remove U937 cells that were not adhered to the HT-29 cells, the reacted cells were washed with PBS twice. In terms of cell dissolution, 0.1% Triton X-100 in 0.1M Tris was allowed to react with the cells for 30 minutes at room temperature, and then, the cells were subjected to quantify by measuring fluorescence thereof using the Fluostar optima microplate reader (BMG Labtechnologies, Germany).

[2] = Homo sapiens, MDA-MB-231, 24 h, 1 μM, MDA-MB-231, 24 hours, RT-PCR, read-out: Inhibition rate of expression of cathepsin S (%)
[3] = Homo sapiens, MDA-MB-231, 24 h, screening, 1 μM of each compound, MDA-MB-231, RT-PCR, read-out: Inhibition rate of expression of cathepsin S (%)
[4] = screening, 1 μM of each compound, MDA-MB-231, RT-PCR

Compound	inhibition at 0.01 µM (MDA-MB-231 cells) [%]	inhibition at 0.1 µM (MDA-MB-231 cells) [%]	inhibition at 1 µM (MDA-MB-231 cells) [%]	inhibition at 10 µM (MDA-MB-231 cells) [%]	inhibitory effects on invasion of breast cancer cells (in words) (MDA-MB-231 cells)	inhibition at 1 µM (cathepsin S; [2]) [%]	inhibition in vivo at 0.01 nmol/CAM [1] [%]	inhibition at 1 µM (HT-29 cells / U937 cells) [%]	inhibition at 1 µM (cathepsin S; [3]) [%]	further results
Cc1nc(N)c(C)c(C)c1O [BJ-1101, 6-amino-2,4,5-trimethylpyridine-3-ol]	0.45 ± 15.6	0	0.3 ± 31.8	1.73 ± 22.7	no inhibitory effects on invasion of breast cancer cells	3.3 ± 0.82				effects for reducing expression of cathepsin S genes (in words) (cathepsin S): no effects for reducing expression of cathepsin S genes
Cc1nc(N(c2ccccc2)c2ccccc2)c(C)c(C)c1O [BJ-1201, 6-diphenylamino-2,4,5-trimethylpyridine-3-ol]	2.52 ± 18.7	0	1.78 ± 22.1	1.96 ± 6.78	no inhibitory effects on invasion of breast cancer cells	2.7 ± 0.12				effects for reducing expression of cathepsin S genes (in words) (cathepsin S): no effects for reducing expression of cathepsin S genes
Cc1nc(NC(=O)CCCCl)c(C)c(C)c1O [Compound 8c, N-(5-hydroxy-3,4,6-trimethylpyridine-2-yl)-4-chlorobutaneamide]							70.2 ± 4.6	24.7	27 ± 1.33	
Cc1nc(NC(=O)C(C)(C)C)c(C)c(C)c1O [Compound 8f, N-(5-hydroxy-3,4,6-trimethylpyridine-2-yl)pivalamide]							73.2 ± 6.4	37.5	16.4 ± 0.12	
Cc1nc(NC(=O)c2ccc(F)cc2)c(C)c(C)c1O [Compound 8l, N-(5-hydroxy-3,4,6-trimethylpyridine-2-yl)-4-fluorobenzamide]	8.57 ± 21.5	11 ± 23.1	33 ± 4.37	49.6 ± 7.82	showed inhibitory effects on invasion of breast cancer cells	0	75.3 ± 6.3	13.7		inhibition at 10 µM (cathepsin S; Homo sapiens, MDA-MB-231, 24 h, 10 μM, MDA-MB-231, 24 hours, RT-PCR, read-out: Inhibition rate of expression of cathepsin S (%)): 12 ± 0.35%
Cc1nc(NC(=O)c2ccc(C(C)(C)C)cc2)c(C)c(C)c1O [Compound 8n, N-(5-hydroxy-3,4,6-trimethylpyridine-2-yl)-4-(tert-butyl)benzamide]							74.2 ± 7	22.5	8 ± 0.41	
Cc1nc(NC(=O)c2cccc3ccccc23)c(C)c(C)c1O [Compound 8p, N-(5-hydroxy-3,4,6-trimethylpyridine-2-yl)-1-naphthamide]							75.8 ± 5.4	64.9	44 ± 2.47	
Cc1nc(NC(=O)c2cccs2)c(C)c(C)c1O [Compound 8q, N-(5-hydroxy-3,4,6-trimethylpyridine-2-yl)thiophene-2-carboxamide]	47.6 ± 18.1	59 ± 10.4	65.8 ± 5.03	67.8 ± 4.25	showed inhibitory effects on invasion of breast cancer cells	57 ± 1.55	74.8 ± 13.2	68.4		inhibition at 0.01 µM (cathepsin S; Homo sapiens, MDA-MB-231, 24 h, 0.01 μM, MDA-MB-231, 24 hours, RT-PCR, read-out: Inhibition rate of expression of cathepsin S (%)): 42 ± 1.21%; inhibition at 0.1 µM (cathepsin S; Homo sapiens, MDA-MB-231, 24 h, 0.1 μM, MDA-MB-231, 24 hours, RT-PCR, read-out: Inhibition rate of expression of cathepsin S (%)): 52 ± 1.68%; effects for reducing expression of cathepsin S genes (in words) (cathepsin S): the most effects for reducing expression of cathepsin S genes
CCC(CC)C(=O)Nc1nc(C)c(O)c(C)c1C [Compound 8r, 2-ethyl-N-(5-hydroxy-3,4,6-trimethylpyridine-2-yl)butanamide]								4.2	3.9 ± 0.22	
CCC(C(=O)Nc1nc(C)c(O)c(C)c1C)c1ccccc1 (stereo not shown) [Compound 8t, N-(5-hydroxy-3,4,6-trimethylpyridine-2-yl)-2-phenyl butanamide]										Inhibitory rates (%) (HT-29 cells / U937 cells): 23.6* %; Inhibition rate of expression of cathepsin S (%) (cathepsin S; [4]): 8.2 ± 0.43%
Cc1cc(C)c(C(=O)Nc2nc(C)c(O)c(C)c2C)c(C)c1 [Compound 8u, N-(5-hydroxy-3,4,6-trimethylpyridine-2-yl)-2,4,6-trimethylbenzamide]								30.4	2.9 ± 0.08	
N-(5-hydroxy-3,4,6-trimethylpyridine-2-yl)isobutyryl amide [Compound 8d]										Inhibitory rates (%) [1]: 53.2 ± 11.5 %; Inhibitory rates (%) (HT-29 cells / U937 cells): 52.3* %; Inhibition rate of expression of cathepsin S (%) (cathepsin S; [4]): 33 ± 1.23%
